Test results: US11446287B2, “Compounds and methods for EP300 or CBP modulation and indications therefor” (Opna Immuno-Oncology SA, priority 2019, dated 2022)

What follows are compounds tested against T1, Recombinant human CBP containing the bromodomain (CBP-BD (1043-1159)) (Homo sapiens, UniProt Q92793) (assay: CBP Alphascreen binding assay). Settings: read-out: CREBBP (CBP) IC50.
T1 construct: Recombinant human CBP bromodomain (CBP-BD (1043-1159)); made in house; host or cells: E. coli BL21-CodonPlus (DE3), modified pET vector
T1 sequence (Q92793 1081-1197): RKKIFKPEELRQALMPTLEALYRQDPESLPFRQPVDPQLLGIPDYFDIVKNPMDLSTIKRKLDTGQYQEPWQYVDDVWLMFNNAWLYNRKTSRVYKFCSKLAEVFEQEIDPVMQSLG
Procedure, shortened: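 Buffer: 50 mM HEPES pH 7.5, 50 mM NaCl, 0.01% BSA, 0.01% Triton X-100, 2 mM DTT. The signal was normalised to plate controls and fitted with a four-parameter curve to give IC50.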

SMILES | IC50 [µM]
COc1nc(C(=O)O)ccc1-c1cn(C2CCOCC2)c2ncc(-c3c(C)noc3C)cc12 [P-0368, 5-(5-(3,5-dimethylisoxazol-4-yl)-1-(tetrahydro-2H-pyran-4-yl)-1H-pyrrolo[2,3-b]pyridin-3-yl)-6-methoxypicolinic acid] | 0.0001 to 1
Cc1noc(C)c1-c1cnc2c(c1)c(-c1c(F)cc(C(=O)O)cc1OC(C)C)cn2C(C1CC1)C1CC1 [P-0369, 4-(1-(dicyclopropylmethyl)-5-(3,5-dimethylisoxazol-4-yl)-1H-pyrrolo[2,3-b]pyridin-3-yl)-3-fluoro-5-isopropoxybenzoic acid] | 0.0001 to 1
CCOc1cc(C(=O)O)cc(Cl)c1-c1cn(C(C2CC2)C2CC2)c2ncc(-c3c(C)noc3C)cc12 [P-0370, 3-chloro-4-(1-(dicyclopropylmethyl)-5-(3,5-dimethylisoxazol-4-yl)-1H-pyrrolo[2,3-b]pyridin-3-yl)-5-ethoxybenzoic acid] | 0.0001 to 1
CCOc1cc(C(=O)O)cc(Cl)c1-c1cn(C2CCOCC2)c2ncc(-c3c(C)noc3C)cc12 [P-0371, 3-chloro-4-(5-(3,5-dimethylisoxazol-4-yl)-1-(tetrahydro-2H-pyran-4-yl)-1H-pyrrolo[2,3-b]pyridin-3-yl)-5-ethoxybenzoic acid] | 0.0001 to 1
Cc1noc(C)c1-c1cnc2c(c1)c(-c1c(Cl)cc(C(=O)O)cc1OC(C)C)cn2C1CCOCC1 [P-0372, 3-chloro-4-(5-(3,5-dimethylisoxazol-4-yl)-1-(tetrahydro-2H-pyran-4-yl)-1H-pyrrolo[2,3-b]pyridin-3-yl)-5-isopropoxybenzoic acid] | 0.0001 to 1
CCOc1cc(C(=O)O)nc(OCC)c1-c1cn(C2CCOCC2)c2ncc(-c3c(C)noc3C)cc12 [P-0373, 5-(5-(3,5-dimethylisoxazol-4-yl)-1-(tetrahydro-2H-pyran-4-yl)-1H-pyrrolo[2,3-b]pyridin-3-yl)-4,6-diethoxypicolinic acid] | 0.0001 to 1
CCOc1cc(C(=O)O)c(F)c(OCC)c1-c1cn(C2CCOCC2)c2ncc(-c3c(C)noc3C)cc12 [P-0374, 4-(5-(3,5-dimethylisoxazol-4-yl)-1-(tetrahydro-2H-pyran-4-yl)-1H-pyrrolo[2,3-b]pyridin-3-yl)-3,5-diethoxy-2-fluorobenzoic acid] | 0.0001 to 1
CCOc1cc(C(=O)O)c(F)cc1-c1cn(C2CCOCC2)c2ncc(-c3c(C)noc3C)cc12 [P-0375, 4-(5-(3,5-dimethylisoxazol-4-yl)-1-(tetrahydro-2H-pyran-4-yl)-1H-pyrrolo[2,3-b]pyridin-3-yl)-5-ethoxy-2-fluorobenzoic acid] | 0.0001 to 1
CCOc1nc(C(=O)O)ccc1-c1cn(C2CCOCC2)c2ncc(-c3c(C)noc3C)cc12 [P-0376, 5-(5-(3,5-dimethylisoxazol-4-yl)-1-(tetrahydro-2H-pyran-4-yl)-1H-pyrrolo[2,3-b]pyridin-3-yl)-6-ethoxypicolinic acid] | 0.0001 to 1
CCOc1cc(C(=O)O)c(F)cc1-c1cn(-c2ccccc2F)c2ncc(-c3c(C)noc3C)cc12 [P-0377, 4-(5-(3,5-dimethylisoxazol-4-yl)-1-(2-fluorophenyl)-1H-pyrrolo[2,3-b]pyridin-3-yl)-5-ethoxy-2-fluorobenzoic acid] | 0.0001 to 1
Cc1noc(C)c1-c1cnc2c(c1)c(-c1ccc(C(=O)O)cc1OC(F)(F)F)cn2C1CCC1 [P-0378, 4-(1-cyclobutyl-5-(3,5-dimethylisoxazol-4-yl)-1H-pyrrolo[2,3-b]pyridin-3-yl)-3-(trifluoromethoxy)benzoic acid] | 0.0001 to 1
Cc1noc(C)c1-c1cnc2c(c1)c(-c1ccc(C(=O)O)cc1OC1CC1)cn2C1CCOCC1 [P-0379, 3-cyclopropoxy-4-(5-(3,5-dimethylisoxazol-4-yl)-1-(tetrahydro-2H-pyran-4-yl)-1H-pyrrolo[2,3-b]pyridin-3-yl)benzoic acid] | 0.0001 to 1
Cc1noc(C)c1-c1cnc2c(c1)c(-c1c(Cl)cc(C(=O)O)cc1OC(F)(F)F)cn2C(C1CCC1)C1CCC1 [P-0380, 3-chloro-4-(1-(dicyclobutylmethyl)-5-(3,5-dimethylisoxazol-4-yl)-1H-pyrrolo[2,3-b]pyridin-3-yl)-5-(trifluoromethoxy)benzoic acid] | 0.0001 to 1
Cc1noc(C)c1-c1cnc2c(c1)c(-c1c(Cl)cc(C(=O)O)cc1OC1CC1)cn2C1CCOCC1 [P-0381, 3-chloro-5-cyclopropoxy-4-(5-(3,5-dimethylisoxazol-4-yl)-1-(tetrahydro-2H-pyran-4-yl)-1H-pyrrolo[2,3-b]pyridin-3-yl)benzoic acid] | 0.0001 to 1
Cc1noc(C)c1-c1cnc2c(c1)c(-c1ccc(C(=O)O)cc1OC(F)(F)F)cn2C1CCCC1 [P-0382, 4-(1-cyclopentyl-5-(3,5-dimethylisoxazol-4-yl)-1H-pyrrolo[2,3-b]pyridin-3-yl)-3-(trifluoromethoxy)benzoic acid] | 0.0001 to 1
Cc1noc(C)c1-c1cnc2c(c1)c(-c1ccc(C(=O)O)cc1OC(F)(F)F)cn2C1(C)CCOC1 (centres unmarked) [P-0383, 4-(5-(3,5-dimethylisoxazol-4-yl)-1-(3-methyltetrahydrofuran-3-yl)-1H-pyrrolo[2,3-b]pyridin-3-yl)-3-(trifluoromethoxy)benzoic acid] | 0.0001 to 1
Cc1noc(C)c1-c1cnc2c(c1)c(-c1ccc(C(=O)O)cc1OC(F)(F)F)cn2-c1cnc(C2CC2)nc1 [P-0384, 4-(1-(2-cyclopropylpyrimidin-5-yl)-5-(3,5-dimethylisoxazol-4-yl)-1H-pyrrolo[2,3-b]pyridin-3-yl)-3-(trifluoromethoxy)benzoic acid] | 0.0001 to 1
Cc1noc(C)c1-c1cnc2c(c1)c(-c1ccc(C(=O)O)cc1OC(F)(F)F)cn2C1(C)CCOCC1 [P-0385, 4-(5-(3,5-dimethylisoxazol-4-yl)-1-(4-methyltetrahydro-2H-pyran-4-yl)-1H-pyrrolo[2,3-b]pyridin-3-yl)-3-(trifluoromethoxy)benzoic acid] | 0.0001 to 1
Cc1noc(C)c1-c1cnc2c(c1)c(-c1c(Cl)cc(C(=O)O)cc1OC(F)(F)F)cn2-c1cnc(C2CC2)nc1 [P-0386, 3-chloro-4-(1-(2-cyclopropylpyrimidin-5-yl)-5-(3,5-dimethylisoxazol-4-yl)-1H-pyrrolo[2,3-b]pyridin-3-yl)-5-(trifluoromethoxy)benzoic acid] | 0.0001 to 1
Cc1noc(C)c1-c1cnc2c(c1)c(-c1ccc(C(=O)O)cc1OCC(F)F)cn2-c1cnc(C2CC2)nc1 [P-0387, 4-(1-(2-cyclopropylpyrimidin-5-yl)-5-(3,5-dimethylisoxazol-4-yl)-1H-pyrrolo[2,3-b]pyridin-3-yl)-3-(2,2-difluoroethoxy)benzoic acid] | 0.0001 to 1
